US20140051685A1, “THERAPEUTIC TREATMENT FOR METABOLIC SYNDROME, TYPE 2 DIABETES, OBESITY OR PREDIABETES” (priority 2010, published 2014)

Columns and labels:
Type in all cases: in vivo
[1] = system: female mice fed a high fat diet for 20 weeks; test: GBR 12909 plus fusaric acid in mice fed a high fat diet; details: for body weight (normalization): 2 weeks of treatment, normal weight for age matched controls=28 grams, FIG. 15; for plasma insulin levels compared to lean, insulin sensitive, non-diabetic mice: FIG. 12
Experimental: Female mice at 4 weeks of age were fed a high fat diet for 20 weeks to induce diabetes and insulin resistance and continued on such diet while treated for 14 days with either GBR 12909 (10 mg/kg), FA (15 mg/kg), GBR 12909 (10 mg/kg) plus FA (15 mg/kg), or vehicle and sacrificed after 14 days of treatment for the analyses of body fat, blood glucose, plasma insulin, and plasma nitric oxide levels. […] Only the GBR/FA group normalized plasma insulin levels. […] This effect was not observed with either GBR or FA treatments alone.

[2] = system: obese, diabetic female ob/ob mice with mild diabetes; test: GBR 12909 and clonidine, interactive effects on blood glucose in ob/ob mice; details: GBR 12909 about 20 mg/kg, clonidine about 0.1 mg/kg, alone or together, once daily 14 days, controls 202±41
Experimental: GBR 12909 is a specific dopamine reuptake inhibitor. Its use can increase the dopaminergic to noradrenergic neuronal activity in the central nervous system. However, by combining GBR 12909 with clonidine, a noradrenergic alpha 2 receptor agonist with preferential affinity for presynaptic alpha 2 sites, it is possible to further increase the dopamine to noradrenaline neuronal activity ratio in the central nervous system. A study was conducted to determine the interactive effects of GBR 12909 and clonidine on blood glucose level in ob/ob mice.
Obese, diabetic female ob/ob mice (body weight of approximately 28 g) with mild diabetes were maintained on 14 hour daily photoperiods, housed one per cage and allowed to feed ad libitum. Different groups of these animals were randomized to once daily treatment with either a specific dopamine reuptake inhibitor, GBR 12909 at an approximate dose of 20 mg/kg body weight (n=4), or clonidine at an approximate dose of 0.1 mg/kg (n=5), these same dosages of GBR 12909 plus clonidine (n=3), or vehicle (control group; n=5-7) for a 14 day period. On the fifteenth day of the study and approximately 24 hours after the final treatment animals were sacrificed and blood samples were obtained for the analyses of blood glucose levels.

[3] = system: male mice fed a high fat diet; test: GBR versus bupropion in mice fed a high fat diet
Experimental: The effect of increasing central dopamine neuronal activity versus increasing central dopamine plus norepinephirne neuronal activity on body fat, blood glucose, plasma insulin, and insulin sensitivity was studied in male mice fed a high fat diet from 4 weeks of age until 24 weeks of age. These mice were maintained on this high fat diet while treated with either GBR (20 mg/kg) (a selective dopamine reuptake inhibitor) or bupropion (20 mg/kg) (a dopamine and norepinpehrine reuptake inhibitor) at doses that approximate their 50% maximal effective dose for these functions in vivo in rodents.

[4] = system: obese, diabetic female (ob/ob) mice; test: GBR 12909 once daily for 14 days in obese, diabetic ob/ob mice; details: 30 mg/kg once daily
Experimental: GBR 12909 (1-(2-[bis(4-Fluorophenyl)methoxy]ethyl)-4-(3-phenylpropyl)piperazine dihydrochloride) is a specific dopamine reuptake inhibitor. Systemic administration of GBR 12909 can increase the dopaminergic to noradrenergic neuronal activity in the central nervous system. A study was conducted to determine the effects of GBR 12909 upon blood glucose and plasma free fatty acid levels in obese, diabetic mice (ob/ob strain). The ob/ob mouse is hyperphagic, obese, insulin resistant, diabetic and dyslipidemic due to the absence of functional leptin as a result of a mutation in this gene. Starvation or calorie restriction of these mice leads to increases in plasma free fatty acid levels that can function over the long term to worsen diabetes.
Different groups of obese, diabetic female (ob/ob) mice (body weight of approximately 33 g) maintained on 12 hour daily photoperiods, housed one per cage and allowed to feed ad libitum were randomized to once daily treatment with either a specific dopamine reuptake inhibitor, GBR 12909 at a dose of 30 mg/kg body weight (n=5-7) or vehicle (control group; n=5-7) for a 14 day period. On the fifteenth day of the study and approximately 24 hours after the final treatment animals were sacrificed and blood samples were obtained for the analyses of blood glucose and plasma free fatty acid and triglyceride levels.

[5] = system: high fat fed, hypertensive SHR rats; test: Quinelorane plus fusaric acid in high fat fed, hypertensive SHR rats; details: SHR rats on high fat diet; for change from baseline body weight (weight loss): FA 12.5 mg/kg, 17 days, at 13 hours after light onset, FIGS. 1 and 2; for blood glucose level: FIG. 6
Experimental: Male SHR rats were maintained on 14 hour daily photoperiods and fed a high fat diet (60% of energy from fat; 5.24 kcal/gram weight) for 3 weeks and then divided into different groups and treated with either quinelorane (Q; a dopamine D2/D3 mixed receptor agonist) (0.075 mg/kg), fusaric acid (FA; a dopamine beta hydroxylase inhibitor) (12.5 mg/kg), quinelorane (0.075 mg/kg) plus FA (Q/FA) (12.5 mg/kg), or vehicle at 13 hours after light onset for 17 days. The doses of Q and FA were set at less than half maximal to effect central dopamine receptor binding functions and dopamine beta hydroxylase activity, respectively. […] Blood pressure measurements were taken at 14 days of treatment and animals were sacrificed at 18 days of treatment for analyses of body fat and humoral factors and metabolites. […] Respecting blood glucose, although both Q and FA reduced glucose level relative to vehicle, only the Q/FA regimen normalized blood glucose in these animals relative to vehicle (FIG. 6).

[6] = system: obese, diabetic female ob/ob mice; test: Fusaric acid plus SKF 38393 in ob/ob mice; details: fusaric acid 15 mg/kg, SKF 38393 10 mg/kg; for retroperitoneal fat pad weight / plasma triglyceride level: 14 days; for retroperitoneal fat pad weight: control value 727±25; for plasma triglyceride level: controls 155±15; for blood glucose: alone or both, once daily 14 days, controls 380±30
Experimental: Fusaric acid is a dopamine beta hydroxylase inhibitor that reduces noradrenaline synthesis in noradrenergic neurons. It is not present in dopaminergic neurons and thus exerts no such effect there. SKF38393 is a post-synaptic dopamine D1 receptor agonist with no marked influence on noradrenergic neurons. A study was conducted to determine the interactive effects of fusaric acid plus SKF 38393 on body fat store levels, and blood glucose and plasma triglyceride levels in ob/ob mice. The ob/ob mouse is hyperphagic, obese, insulin resistant, diabeteic and dyslipidemic due to the absence of functional leptin as a result of a mutation in this gene.
Obese, diabetic female ob/ob mice (body weight of approximately 33 g) maintained on 14 hour daily photoperiods, housed one per cage and allowed to feed ad libitum were randomized to once daily treatment with either fusaric acid (15 mg/kg; n=6-8), SKF 38393 (10 mg/kg; n=6-8), both fusaric acid (15 mg/kg) and SKF 38393 (10 mg/kg) (n=6-8), or vehicle (control group; n=6-8) for a 14 day period. On the fifteenth day of the study and approximately 24 hours after the final treatment animals were sacrificed and blood samples were obtained for the analyses of blood glucose, plasma free fatty acid and triglyceride levels. Relative to controls, fusaric acid raised blood glucose from 380±30 mg/dl to 430±30 mg/dl and SKF 38393 reduced blood glucose to 290±55 mg/dl. However, fusaric acid plus SKF 38393 reduced blood glucose to 180±20 mg/dl. […] Neither fusaric acid nor SKF 38393 had any effect on retroperitoneal fat pad weight (735±43 mg and 735±50 mg, respectively versus control value of 727±25 mg) however, the combination of fusaric acid plus SKF 38393 reduced retroperitoneal fat pad weight to 680±25 mg.

[7] = system: obese, diabetic female ob/ob mice; test: Low dose amphetamine with or without bromocriptine in ob/ob mice; details: amphetamine 3 mg/kg
Excerpt: Amphetamine is a selective presynaptic dopamine release enhancer. It also acts as a presynaptic noradrenergic release enhancer but at higher dosages that will counter the effect of the dopamine reuptake inhibition activity to improve metabolism. However, addition of a dopamine D2 receptor agonist will act to reduce any amphetamine-induced increase in synaptic noradrenaline level and therefore should produce a more pronounced desired effect on metabolic disease than amphetamine or the D2 receptor agonist alone. A study was conducted to determine the effects of low dose amphetamine (3 mg/kg) with or without the dopamine D2 receptor agonist bromocriptine (5-<10 mg/kg dose) upon body weight gain, blood glucose, plasma free fatty acid and triglyceride levels in obese, diabetic mice (ob/ob strain). […] The ob/ob mouse is hyperphagic, obese, insulin resistant, diabetic and dyslipidemic due to the absence of functional leptin as a result of a mutation in this gene. Starvation or calorie restriction of these mice leads to increases in plasma free fatty acid levels that can function over the long term to worsen diabetes.
On the fifteenth day of the study and approximately 24 hours after the final treatment animals were sacrificed and blood samples were obtained for the analyses of blood glucose, plasma free fatty acid and triglyceride levels. […] Amphetamine had no effect on final body weight however, amphetamine plus bromocriptine reduced final body weight from 44±1 g to 39=/- 1.5 g.

[8] = system: female C57 Black mice fed a high simple sugar/moderate fat diet (western diet); test: Body fat in C57 Black mice fed a western diet (GBR, FA, clonidine and combinations); details: mice on western diet; GBR 25 mg/kg, FA 10 mg/kg, clonidine 0.075 mg/kg; 14 days; relative to vehicle and BC/SKF groups; FIG. 7
Experimental: Female C57 Black mice were maintained on a 12 hour daily photoperiod and fed a high simple sugar/moderate fat diet (western diet) for several weeks to induce obesity and then different groups of animals (n =5-8/group) were treated with either GBR 12909 (25 mg/kg), FA (10 mg/kg), clonidine (0.075 mg/kg), GBR (25 mg/kg) plus FA (10 mg/kg), GBR (25 mg/kg) plus clonidine (0.075 mg/kg), bromocriptine (10 mg/kg) plus SKF38393 (10 mg/kg), or vehicle and sacrificed after 14 days of treatment to analyze body fat store levels.

[9] = system: female obese diabetic mice (ob/ob strain); test: Bupropion plus fusaric acid in ob/ob mice; details: bupropion 40 mg/kg, FA 10 mg/kg, 14 days, relative to control, FIG. 9
Experimental: Female obese diabetic mice (ob/ob strain) at 6 weeks of age were fed standard rodent chow and different groups of animals (n=5-7/group) were treated with bupropion (40 mg/kg), FA (10 mg/kg), bupropion (40 mg/kg) plus FA (10 mg/kg), or vehicle for 14 days and then sacrificed for the analyses of blood glucose and body fat store level.

[10] = GBR 12909 10 mg/kg, FA 15 mg/kg, 14 days
[11] = relative to vehicle, 18 days of treatment

SMILES: Cl.Cl.Fc1ccc(C(OCCN2CCN(CCCc3ccccc3)CC2)c2ccc(F)cc2)cc1 [GBR 12909, 1-(2-[bis(4-Fluorophenyl)methoxy]ethyl)-4-(3-phenylpropyl)piperazine dihydrochloride]
- body weight (normalization) [1]: not observed
- blood glucose level ([1]; GBR 12909 10 mg/kg, FA 15 mg/kg, 14 days, FIG. 11): no significant effect
- plasma insulin levels compared to lean, insulin sensitive, non-diabetic mice [1, 10]: significantly higher
- blood glucose [2]: 221 ± 31 mg/dL
- reducing plasma insulin, compared with bupropion at equal dose ([3]; 20 mg/kg each): much more effective
- HOMA-IR values ([3]; GBR 20 mg/kg, compared to vehicle and Bupropion (20 mg/kg) groups, FIG. 19): significantly reduced
- body fat (intraabdominal fat pad) ([3]; GBR 20 mg/kg, compared to vehicle and Bupropion (20 mg/kg) treatment, FIG. 17): significantly reduced
- blood glucose ([3]; GBR 20 mg/kg, relative to vehicle and Bupropion (20 mg/kg) groups, FIG. 18): significantly reduced
- reduction of plasma triglyceride level relative to controls [4]: approximately 32%
- blood glucose ([4]; about 24 hours after final treatment, controls 455±50): 145 ± 25 mg/dL
- final body weight ([4]; controls 42±2): 28 ± 0.5 g
- plasma free fatty acid levels ([4]; controls 780±40): 450 ± 20 µM

SMILES: CCCN1CCC[C@@H]2Cc3nc(N)ncc3C[C@H]21 [Q]
- change from baseline body weight (weight loss) ([5]; Q 0.075 mg/kg): modest if any effects
- desensitization to the effects on weight loss ([5]; Q 0.075 mg/kg, weight regained to baseline values by treatment end): exhibited desensitization
- plasma endothelin-1 (endothelin 1-21 fragment) level [5, 11]: no significant effect
- plasma nitric oxide level [5, 11]: no significant effect
- blood glucose level ([5]; relative to vehicle): reduced

SMILES: Cl.Oc1cc2c(cc1O)C(c1ccccc1)CNCC2 (centres unmarked) [SKF 38393, 1-phenyl-7,8-dihydroxy-2,3,4,5-tetrahydro-1H-3-benzazepine hydrochloride]
- retroperitoneal fat pad weight [6]: 735 ± 50 mg
- plasma triglyceride level [6]: 130 ± 7 mg/dL
- blood glucose [6]: 290 ± 55 mg/dL

SMILES: CC(N)Cc1ccccc1 (centres unmarked) [amphetamine]
- effect on final body weight ([7]; 14 days): no effect
- plasma free fatty acid levels ([7]; 14 days, controls 900±100): 510 ± 30 µM
- plasma triglyceride levels ([7]; bromocriptine 5-<10 mg/kg, 14 days, controls 175±21): 70 ± 7 mg/dL
- blood glucose ([7]; bromocriptine 5-<10 mg/kg, once daily 14 days, controls 422±46): 348 ± 22 mg/dL

SMILES: Clc1cccc(Cl)c1NC1=NCCN1 [clonidine, 2-(2,6-dichloroanilino)-2-imidazoline]
- body fat store level (intraabdominal fat pad) [8]: no effect
- blood glucose [2]: 250 ± 35 mg/dL

SMILES: CCCCc1ccc(C(=O)O)nc1 [fusaric acid, 5-butyl-2-pyridinecarboxylic acid]
- body weight (normalization) [1]: not observed
- plasma insulin levels compared to lean, insulin sensitive, non-diabetic mice [1, 10]: significantly higher
- retroperitoneal fat pad weight [6]: 735 ± 43 mg
- plasma triglyceride level [6]: 170 ± 27 mg/dL
- blood glucose [6]: 430 ± 30 mg/dL
- change from baseline body weight (weight loss) ([5]; Q 0.075 mg/kg): modest if any effects
- plasma C-reactive protein (CRP) level [5, 11]: no significant effect
- blood glucose level ([5]; relative to vehicle): reduced
- blood glucose [9]: no significant effect
